Results taken from the NIST ThermoML archive (doi:10.1016/j.jct.2014.07.026).
± gives the expanded uncertainty stated by the source.

Test: mn = molality of the nth substance listed, in mol/kg
Conditions: 100 kPa, Liquid; for mass density: Vibrating tube method; for speed of sound: Frequency=2 MHz, Linear variable-path acoustic interferometer

Structure (SMILES): CCCCn1cc[n+](C)c1.NCC(=O)[O-] [1-butyl-3-methylimidazolium glycinate] + O
- mass density (293.15 K, m1 = 0.03911): 999.516 ± 0.11 kg/m3
- mass density (293.15 K, m1 = 0.05766): 1000.13 ± 0.11 kg/m3
- mass density (293.15 K, m1 = 0.07571): 1000.71 ± 0.11 kg/m3
- mass density (293.15 K, m1 = 0.09405): 1001.28 ± 0.11 kg/m3
- mass density (293.15 K, m1 = 0.1177): 1002.03 ± 0.11 kg/m3
- mass density (293.15 K, m1 = 0.1634): 1003.42 ± 0.11 kg/m3
- mass density (293.15 K, m1 = 0.2013): 1004.58 ± 0.11 kg/m3
- mass density (293.15 K, m1 = 0.2535): 1006.13 ± 0.11 kg/m3
- mass density (293.15 K, m1 = 0.2905): 1007.2 ± 0.11 kg/m3
- mass density (293.15 K, m1 = 0.3496): 1008.89 ± 0.11 kg/m3
- mass density (293.15 K, m1 = 0.4089): 1010.57 ± 0.11 kg/m3
- mass density (293.15 K, m1 = 0.4607): 1012 ± 0.11 kg/m3
- mass density (293.15 K, m1 = 0.5188): 1013.58 ± 0.11 kg/m3
- speed of sound (298.15 K, m1 = 0.05112): 1505.2 ± 2.5 m/s
- speed of sound (298.15 K, m1 = 0.1057): 1512.8 ± 2.5 m/s
- speed of sound (298.15 K, m1 = 0.1479): 1518.7 ± 2.5 m/s
- speed of sound (298.15 K, m1 = 0.1966): 1525.4 ± 2.5 m/s
- speed of sound (298.15 K, m1 = 0.2458): 1531.5 ± 2.5 m/s
- speed of sound (298.15 K, m1 = 0.2904): 1537.8 ± 2.5 m/s
- speed of sound (298.15 K, m1 = 0.3486): 1545.1 ± 2.5 m/s
- speed of sound (298.15 K, m1 = 0.4012): 1551.1 ± 2.5 m/s
- speed of sound (298.15 K, m1 = 0.4523): 1557.8 ± 2.5 m/s
- speed of sound (298.15 K, m1 = 0.5271): 1566.9 ± 2.5 m/s
- mass density (298.15 K, m1 = 0.03911): 998.332 ± 0.11 kg/m3
- mass density (298.15 K, m1 = 0.05766): 998.92 ± 0.11 kg/m3
- mass density (298.15 K, m1 = 0.07571): 999.491 ± 0.11 kg/m3
- mass density (298.15 K, m1 = 0.09405): 1000.03 ± 0.11 kg/m3
- mass density (298.15 K, m1 = 0.1177): 1000.77 ± 0.11 kg/m3
- mass density (298.15 K, m1 = 0.1634): 1002.14 ± 0.11 kg/m3
- mass density (298.15 K, m1 = 0.2013): 1003.25 ± 0.11 kg/m3
- mass density (298.15 K, m1 = 0.2535): 1004.78 ± 0.11 kg/m3
- mass density (298.15 K, m1 = 0.2905): 1005.83 ± 0.11 kg/m3
- mass density (298.15 K, m1 = 0.3496): 1007.53 ± 0.11 kg/m3
- mass density (298.15 K, m1 = 0.4089): 1009.11 ± 0.11 kg/m3
- mass density (298.15 K, m1 = 0.4607): 1010.51 ± 0.11 kg/m3
- mass density (298.15 K, m1 = 0.5188): 1012.11 ± 0.11 kg/m3
- mass density (303.15 K, m1 = 0.03911): 996.915 ± 0.11 kg/m3
- mass density (303.15 K, m1 = 0.05766): 997.485 ± 0.11 kg/m3
- mass density (303.15 K, m1 = 0.07571): 998.049 ± 0.11 kg/m3
- mass density (303.15 K, m1 = 0.09405): 998.596 ± 0.11 kg/m3
- mass density (303.15 K, m1 = 0.1177): 999.306 ± 0.11 kg/m3
- mass density (303.15 K, m1 = 0.1634): 1000.64 ± 0.11 kg/m3
- mass density (303.15 K, m1 = 0.2013): 1001.73 ± 0.11 kg/m3
- mass density (303.15 K, m1 = 0.2535): 1003.2 ± 0.11 kg/m3
- mass density (303.15 K, m1 = 0.2905): 1004.25 ± 0.11 kg/m3
- mass density (303.15 K, m1 = 0.3496): 1005.87 ± 0.11 kg/m3
- mass density (303.15 K, m1 = 0.4089): 1007.48 ± 0.11 kg/m3
- mass density (303.15 K, m1 = 0.4607): 1008.89 ± 0.11 kg/m3
- mass density (303.15 K, m1 = 0.5188): 1010.43 ± 0.11 kg/m3
- mass density (308.15 K, m1 = 0.03804): 995.245 ± 0.11 kg/m3
- mass density (308.15 K, m1 = 0.05959): 995.908 ± 0.11 kg/m3
- mass density (308.15 K, m1 = 0.07881): 996.479 ± 0.11 kg/m3
- mass density (308.15 K, m1 = 0.09916): 997.101 ± 0.11 kg/m3
- mass density (308.15 K, m1 = 0.1199): 997.708 ± 0.11 kg/m3
- mass density (308.15 K, m1 = 0.1512): 998.623 ± 0.11 kg/m3
- mass density (308.15 K, m1 = 0.206): 1000.16 ± 0.11 kg/m3
- mass density (308.15 K, m1 = 0.2462): 1001.31 ± 0.11 kg/m3
- mass density (308.15 K, m1 = 0.2873): 1002.43 ± 0.11 kg/m3
- mass density (308.15 K, m1 = 0.359): 1004.36 ± 0.11 kg/m3
- mass density (308.15 K, m1 = 0.3954): 1005.3 ± 0.11 kg/m3
- mass density (308.15 K, m1 = 0.4498): 1006.76 ± 0.11 kg/m3
- mass density (308.15 K, m1 = 0.5188): 1008.59 ± 0.11 kg/m3
- mass density (313.15 K, m1 = 0.03949): 993.444 ± 0.11 kg/m3
- mass density (313.15 K, m1 = 0.05959): 994.046 ± 0.11 kg/m3
- mass density (313.15 K, m1 = 0.07881): 994.62 ± 0.11 kg/m3
- mass density (313.15 K, m1 = 0.09916): 995.217 ± 0.11 kg/m3
- mass density (313.15 K, m1 = 0.1199): 995.816 ± 0.11 kg/m3
- mass density (313.15 K, m1 = 0.1512): 996.706 ± 0.11 kg/m3
- mass density (313.15 K, m1 = 0.206): 998.24 ± 0.11 kg/m3
- mass density (313.15 K, m1 = 0.2462): 999.361 ± 0.11 kg/m3
- mass density (313.15 K, m1 = 0.2873): 1000.45 ± 0.11 kg/m3
- mass density (313.15 K, m1 = 0.359): 1002.39 ± 0.11 kg/m3
- mass density (313.15 K, m1 = 0.3954): 1003.31 ± 0.11 kg/m3
- mass density (313.15 K, m1 = 0.4498): 1004.72 ± 0.11 kg/m3
- mass density (313.15 K, m1 = 0.5188): 1006.52 ± 0.11 kg/m3
